Assay [1] has as its target T1, Carnitine O-palmitoyltransferase 1, liver isoform (Homo sapiens, UniProt P50416).
T1 sequence (P50416 whole entry): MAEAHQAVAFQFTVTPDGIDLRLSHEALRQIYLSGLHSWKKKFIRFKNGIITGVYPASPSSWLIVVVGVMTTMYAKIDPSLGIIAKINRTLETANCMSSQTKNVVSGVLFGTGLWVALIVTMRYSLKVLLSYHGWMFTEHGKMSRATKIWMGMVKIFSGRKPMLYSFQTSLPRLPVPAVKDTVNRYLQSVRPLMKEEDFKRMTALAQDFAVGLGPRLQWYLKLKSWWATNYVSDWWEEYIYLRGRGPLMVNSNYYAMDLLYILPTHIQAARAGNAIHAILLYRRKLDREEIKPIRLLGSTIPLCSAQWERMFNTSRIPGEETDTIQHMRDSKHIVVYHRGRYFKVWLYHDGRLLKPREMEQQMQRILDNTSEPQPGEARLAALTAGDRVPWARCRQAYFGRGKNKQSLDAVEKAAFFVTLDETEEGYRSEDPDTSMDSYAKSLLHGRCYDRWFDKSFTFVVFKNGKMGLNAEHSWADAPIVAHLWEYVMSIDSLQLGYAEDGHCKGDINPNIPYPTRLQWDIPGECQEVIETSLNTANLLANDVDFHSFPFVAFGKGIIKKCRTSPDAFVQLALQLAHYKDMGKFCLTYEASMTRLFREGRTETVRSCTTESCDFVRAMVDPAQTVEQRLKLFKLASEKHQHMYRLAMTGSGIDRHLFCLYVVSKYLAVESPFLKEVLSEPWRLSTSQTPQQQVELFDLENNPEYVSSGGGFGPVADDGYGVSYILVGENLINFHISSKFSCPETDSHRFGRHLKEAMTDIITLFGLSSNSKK
Nature of the assay: Inhibition of CPT1 in liver mitochondria.

Assay [2] is filed under the species Rattus norvegicus. In words: Inhibition of CPT1A activity in 48 hrs fasted rat. The format is functional.
Assay [3] is filed under the species Rattus norvegicus. In words: Reduction in ketone bodies in 48 hrs fasted rat. The format is functional. More on the design: scale not given: the % may be the effect or the level left.
Assay [4] can be described thus: Inhibition of rat FAO.
Assay [5] in a line: Inhibition of human FAO.
The target of assay [6] is T2, Carnitine O-palmitoyltransferase 2, mitochondrial (Homo sapiens, UniProt P23786).
T2 sequence (P23786 whole entry): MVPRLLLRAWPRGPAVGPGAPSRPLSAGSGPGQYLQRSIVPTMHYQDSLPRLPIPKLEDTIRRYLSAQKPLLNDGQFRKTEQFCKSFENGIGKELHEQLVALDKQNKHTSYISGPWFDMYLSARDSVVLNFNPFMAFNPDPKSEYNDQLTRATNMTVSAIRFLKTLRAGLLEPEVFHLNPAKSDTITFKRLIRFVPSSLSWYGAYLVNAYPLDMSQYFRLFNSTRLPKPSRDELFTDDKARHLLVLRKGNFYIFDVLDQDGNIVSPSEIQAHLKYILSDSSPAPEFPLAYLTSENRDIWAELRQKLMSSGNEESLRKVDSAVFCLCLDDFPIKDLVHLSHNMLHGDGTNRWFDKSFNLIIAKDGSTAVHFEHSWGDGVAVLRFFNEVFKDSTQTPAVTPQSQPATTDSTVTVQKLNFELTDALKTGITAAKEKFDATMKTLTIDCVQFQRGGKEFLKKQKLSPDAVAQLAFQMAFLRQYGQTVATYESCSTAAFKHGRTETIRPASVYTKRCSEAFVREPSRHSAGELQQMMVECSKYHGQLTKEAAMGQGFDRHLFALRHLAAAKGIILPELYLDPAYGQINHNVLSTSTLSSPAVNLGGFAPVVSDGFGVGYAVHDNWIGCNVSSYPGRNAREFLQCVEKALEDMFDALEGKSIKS
Nature of the assay: Inhibition of human CPT2.

In assay [7] the target is T3, Carnitine O-palmitoyltransferase 1, muscle isoform (Homo sapiens, UniProt Q92523).
T3 sequence (Q92523 whole entry): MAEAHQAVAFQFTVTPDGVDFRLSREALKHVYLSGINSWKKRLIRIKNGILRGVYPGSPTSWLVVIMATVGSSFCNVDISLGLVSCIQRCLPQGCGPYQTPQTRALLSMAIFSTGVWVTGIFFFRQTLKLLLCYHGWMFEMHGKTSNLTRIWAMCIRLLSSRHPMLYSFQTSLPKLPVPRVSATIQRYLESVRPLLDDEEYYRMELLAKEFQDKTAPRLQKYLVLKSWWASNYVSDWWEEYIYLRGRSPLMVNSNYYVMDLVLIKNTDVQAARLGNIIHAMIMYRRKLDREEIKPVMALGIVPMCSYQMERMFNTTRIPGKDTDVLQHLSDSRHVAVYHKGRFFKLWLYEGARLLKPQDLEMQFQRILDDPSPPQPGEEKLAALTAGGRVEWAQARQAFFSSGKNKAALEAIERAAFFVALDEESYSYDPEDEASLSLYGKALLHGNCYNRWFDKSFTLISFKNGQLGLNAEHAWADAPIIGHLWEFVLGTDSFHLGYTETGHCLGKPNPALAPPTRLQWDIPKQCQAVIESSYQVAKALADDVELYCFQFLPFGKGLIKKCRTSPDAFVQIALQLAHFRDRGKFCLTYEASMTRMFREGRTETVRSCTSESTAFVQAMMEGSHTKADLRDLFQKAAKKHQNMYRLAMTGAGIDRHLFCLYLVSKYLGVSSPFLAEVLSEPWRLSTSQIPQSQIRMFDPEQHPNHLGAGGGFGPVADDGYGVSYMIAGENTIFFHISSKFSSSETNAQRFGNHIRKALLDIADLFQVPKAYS
In words: Inhibition of CPT1B in liver mitochondria.

Assay [8] concerns the target T3, Carnitine O-palmitoyltransferase 1, muscle isoform. In words: Inhibition of CPT1B in heart mitochondria.
For assay [9], the target named is T4, Carnitine O-palmitoyltransferase 2, mitochondrial (Rattus norvegicus, UniProt P18886).
T4 sequence (P18886 whole entry): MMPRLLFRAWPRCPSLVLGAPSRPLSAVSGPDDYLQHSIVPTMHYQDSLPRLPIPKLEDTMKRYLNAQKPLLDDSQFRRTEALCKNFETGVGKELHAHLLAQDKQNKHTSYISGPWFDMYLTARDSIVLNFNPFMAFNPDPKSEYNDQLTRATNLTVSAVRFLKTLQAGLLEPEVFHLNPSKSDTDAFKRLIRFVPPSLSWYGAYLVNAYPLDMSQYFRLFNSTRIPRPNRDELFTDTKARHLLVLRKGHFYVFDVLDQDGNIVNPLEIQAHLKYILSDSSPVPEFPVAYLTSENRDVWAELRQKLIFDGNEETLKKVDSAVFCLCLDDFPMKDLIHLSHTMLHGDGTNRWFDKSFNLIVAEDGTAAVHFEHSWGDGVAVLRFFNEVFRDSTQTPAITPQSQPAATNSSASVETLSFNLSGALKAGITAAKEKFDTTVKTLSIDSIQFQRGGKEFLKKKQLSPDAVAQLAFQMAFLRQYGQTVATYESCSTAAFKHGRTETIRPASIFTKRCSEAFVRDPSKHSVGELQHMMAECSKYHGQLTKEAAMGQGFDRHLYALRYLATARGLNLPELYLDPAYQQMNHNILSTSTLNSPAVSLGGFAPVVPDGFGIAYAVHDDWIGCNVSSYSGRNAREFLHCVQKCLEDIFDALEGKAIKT
Nature of the assay: Inhibition of rat CPT2.

Assay [10] addresses T3, Carnitine O-palmitoyltransferase 1, muscle isoform. In words: Inhibition of human CPT1B.
Assay [11] concerns the target T1, Carnitine O-palmitoyltransferase 1, liver isoform. Nature of the assay: Inhibition of human CPT1A.
Assay [12] has as its target T5, Carnitine O-palmitoyltransferase 1, liver isoform (Homo sapiens) (UniProt P50416).
T5 sequence (whole entry): T1 sequence (P50416 whole entry)
Nature of the assay: Increase in CPT1A activity in hepatocytes at 60 uM. Type of assay: cell-based. The note with it: Hepatocyte.

Assay [13] deals with Hepatocyte. In words: Stimulation of FAO in hepatocytes at 28 uM. Type of assay: cell-based.
Assay [14] deals with T5, Carnitine O-palmitoyltransferase 1, liver isoform (Homo sapiens). Nature of the assay: Increase in CPT1 activity in human MCF7 cells assessed as increase in radiolabeled palmitoylcarnitine relative to untreated control. Type of assay: cell-based.
The target in assay [15] is T1, Carnitine O-palmitoyltransferase 1, liver isoform. In words: Increase in CPT1 activity in human MCF7 cells assessed as increase in radiolabeled palmitoylcarnitine. The format is cell-based.
In assay [16] the target is T5, Carnitine O-palmitoyltransferase 1, liver isoform (Homo sapiens). In words: Increase in CPT1 activity in human MCF7 cells assessed as increase in radiolabeled palmitoylcarnitine at 31 uM. Type of assay: cell-based.

On to `COc1ccc(CN2CCN(CCCSc3cc(C(C)(C)C)c(O)c(C(C)(C)C)c3)CC2)c(OC)c1OC`, for which it took 51 µM to reach half-maximal inhibition in [1] (IC50).
With `CCCCCCCCCCCCCC[C@]1(C(=O)OC)CO1` (racemic), the “inhibition (INH)” value in [2] stood at 90%. The Activity in [3] is listed as 90%.
`O=C(O)C(=O)c1ccc(O)cc1`: the IC50 – broadly, the point on the concentration scale where inhibition reaches its midpoint – in [4] is > 100 µM; in [5] it was 33.3 µM; in [6] it was > 100 µM; in [7], 510 µM; in assay [8], 11 µM; in assay [9] it was > 100 µM. For the same compound, the IC50 in assay [10] was 60.3 µM; in assay [11], > 100 µM.
Take `C=CCC1(CC=C)C(=O)S[C@](C)(CCCCCCCC)C1=O`: the Activity in [12] was found to be 150%; in assay [13], 150%; in assay [14], 140%; in assay [16], 177%. Moreover, the concentration giving a half-maximal response (EC50) – broadly, the concentration needed to bring the measured effect to its halfway point – in [15] turned out to be 3 µM.

These data come from ChEMBL document CHEMBL2216752, “Carnitine palmitoyltransferase (CPT) modulators: a medicinal chemistry perspective on 35 years of research” (J Med Chem, 2011).
